In US20060276537A1, “Use of ladostigil for the treatment of multiple sclerosis” (priority 2005, published 2006):

What was measured:
[1] = tested on: chronic progressive EAE induced by pMOG35-55 in C57BL/6 mice; assay: MOG-induced chronic progressive EAE in C57BL/6 mice, clinical scoring; assay type: in vivo; conditions: GA blocking, dose 250 mg/kg, given with inoculum on day 0
Procedure: MOG (Myelin oligodendrocyte glycoprotein) is a member of the immunoglobulin superfamily expressed exclusively in CNS myelin. It is one of the most encephalitogenic proteins and is widely used to induce EAE in different rodent strains. In C57BL/6 mice, immunization with the MOG peptide pMOG35-55 in CFA induces chronic progressive EAE. Ladostigil was tested in this model in order to assess its ability to inhibit the disease.
EAE was induced by subcutaneous injection of encephalitogenic emulsion at a volume of 0.2 ml/mouse in the right flank. On the day of induction, pertussis toxin was injected intraperitoneally at a volume dose of 0.2 ml/mouse. The injection of the pertussis toxin was repeated after 48 hours. At the end of the experiment, 6-7 brains from control and the ladostigil groups were dissected and frozen at −70° C. for CHE (cholinesterase) determination and 6-7 brains were dissected and frozen for MAO (monoamine oxidase) determination. Before sacrifice, blood for ChE determination was taken on heparine, hemolysed 1/20 in 10 mM cold phosphate buffer pH=6.0 and stored at −70° C. until the assay.
90 female C57Bl/6 mice 8-10 weeks old obtained from Harlan animal breeding center were used in the study. Mice were allocated randomly into 6 groups:
Both compounds were administered by gavage once daily during the whole experiment (30 days) at a volume of 0.2 ml/mouse.
The mice were observed daily from the 10th day post-EAE induction and the EAE clinical signs were scored. The scores were recorded on observation cards according to the grades described in Table 5:
The number of sick animals (animals with a score of ≧1 at any point) in each group was summed.
The incidence of disease and the % activity were calculated as follows: [formula] [formula] [formula]
The maximal scores of all mice in each group were summed.
The mean maximal score and the % activity of the group were calculated as follows: [formula] [formula] [formula]
The individual scores (IMS) of each of the mice during the observation period were summed (score 6 will be counted forward).
The GMS of the group and its % activity were calculated as follows: [formula] [formula] [formula]
Their dates of onset were calculated as day of termination +1.

[2] = Body weight of the EAE mice (Table 7); assay type: in vivo
Text: These differences were statistically significant (p<0.000, Manova). According to the subsequent Post Hoc comparison (LSD), all the groups were different from the control (Table 7). […] On day 14, four days after the onset of the disease, sick mice lost an average of 2 g of weight. The average mean weight of GA-blocked mice was reduced by only 0.4 g. On day 23 the control group reached the lowest weight, 14.6 g.

In the case of “glatiramer acetate [GA, reference compound]”, the Incidence [1] is reported as 14/15, the Mortality [1] is reported as 0/15 and the “% Inhibition” value ([1]; vs control group mean score) is reported as 54.6%. For the same substance, the “Reduction of average mean weight” value ([2]; GA-blocked mice, day 14) was 0.4 g and the “Weight of EAE mice” value ([2]; day 2 after induction, GA blocking, dose 250 mg/kg) was 18.6 ± 0.8 g.
